Molecular target: FP receptor (Homo sapiens (Human), UniProt P43088)
Test: In vitro test of inhibition of human FP receptor activity (PGF2α-induced calcium flux in FP-expressing CHEM1 cells)
Type: cell-based
Conditions: PGF2α-induced (2 nM) calcium flux in FP-expressing CHEM1 cells; some as mean values from multiple determinations
Description: Table 1 below lists the IC50 values from this assay for individual working examples of the invention (some as mean values from multiple independent individual determinations): […]

Sequence of FP receptor (P43088 whole entry): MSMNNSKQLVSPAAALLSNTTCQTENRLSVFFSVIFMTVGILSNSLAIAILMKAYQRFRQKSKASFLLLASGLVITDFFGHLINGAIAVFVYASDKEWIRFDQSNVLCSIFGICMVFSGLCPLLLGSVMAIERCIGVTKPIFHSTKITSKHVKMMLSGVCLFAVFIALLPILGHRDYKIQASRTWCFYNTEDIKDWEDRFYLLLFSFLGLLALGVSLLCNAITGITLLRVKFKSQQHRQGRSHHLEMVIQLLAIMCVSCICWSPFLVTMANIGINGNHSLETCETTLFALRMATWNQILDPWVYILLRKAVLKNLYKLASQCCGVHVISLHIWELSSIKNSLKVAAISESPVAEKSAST

SMILES | IC50 [nM]
Cc1c(-c2ccccc2)nc2ccc(Br)cc2c1C(=O)NCC(CC(=O)O)c1ccccc1OC(F)(F)F (single isomer, unassigned; (+)) [Example 101, (+)-4-{[(6-Bromo-3-methyl-2-phenylquinolin-4-yl)carbonyl]amino}-3-[2-(trifluoromethoxy)phenyl]butanoic Acid] | 32
Cc1c(-c2ccccc2)nc2ccc(Br)cc2c1C(=O)NCC(CC(=O)O)c1ccccn1 (single isomer, unassigned; (+)) [Example 104, (+)-4-{[(6-Bromo-3-methyl-2-phenylquinolin-4-yl)carbonyl]amino}-3-(pyridin-2-yl)butanoic Acid] | > 1000
Cc1c(-c2ccccc2)nc2ccc(Br)cc2c1C(=O)NCC(CC(=O)O)c1ccccc1C(F)(F)F (single isomer, unassigned; (+)) [Example 106, (+)-4-{[(6-Bromo-3-methyl-2-phenylquinolin-4-yl)carbonyl]amino}-3-[2-(trifluoromethyl)phenyl]butanoic Acid] | 280
COc1cccnc1C(CNC(=O)c1c(C)c(-c2ccccc2)nc2ccc(Br)cc12)CC(=O)O (single isomer, unassigned; (+)) [Example 110, (+)-4-{[(6-Bromo-3-methyl-2-phenylquinolin-4-yl)carbonyl]amino}-3-(3-methoxypyridin-2-yl)butanoic Acid] | 75
Cc1c(-c2ccccc2)nc2ccc(Br)cc2c1C(=O)NCC(C)(CC(=O)O)c1ccccc1F (single isomer, unassigned; (+)) [Example 115, (+)-4-{[(6-Bromo-3-methyl-2-phenylquinolin-4-yl)carbonyl]amino}-3-(2-fluorophenyl)-3-methylbutanoic Acid] | 31
Cc1c(-c2ccccc2)nc2ccc(Br)cc2c1C(=O)NCC(C)(CC(=O)O)c1ccccn1 (single isomer, unassigned; (+)) [Example 118, (+)-4-{[(6-Bromo-3-methyl-2-phenylquinolin-4-yl)carbonyl]amino}-3-methyl-3-(pyridin-2-yl)butanoic Acid] | 280
COc1cccc(F)c1C(CNC(=O)c1c(C)c(-c2ccccc2)nc2ccc(Br)cc12)CC(=O)O (single isomer, unassigned; (+)) [Example 127, (+)-4-{[(6-Bromo-3-methyl-2-phenylquinolin-4-yl)carbonyl]amino}-3-(2-fluoro-6-methoxyphenyl)butanoic Acid] | 25
CCOc1ccccc1C(CNC(=O)c1c(C)c(-c2ccccc2)nc2ccc(Br)cc12)CC(=O)O (single isomer, unassigned; (+)) [Example 131, (+)-4-{[(6-Bromo-3-methyl-2-phenylquinolin-4-yl)carbonyl]amino}-3-(2-ethoxyphenyl)butanoic Acid] | 99
COc1ccc(F)cc1C(C)(CNC(=O)c1c(C)c(-c2ccccc2)nc2ccc(Br)cc12)CC(=O)O (single isomer, unassigned; (+)) [Example 133, (+)-4-{[(6-Bromo-3-methyl-2-phenylquinolin-4-yl)carbonyl]amino}-3-(5-fluoro-2-methoxyphenyl)-3-methylbutanoic Acid] | 47
COc1cc(F)ccc1C(C)(CNC(=O)c1c(C)c(-c2ccccc2)nc2ccc(Br)cc12)CC(=O)O (single isomer, unassigned; (+)) [Example 139, (+)-4-{[(6-Bromo-3-methyl-2-phenylquinolin-4-yl)carbonyl]amino}-3-(4-fluoro-2-methoxyphenyl)-3-methylbutanoic Acid] | 28
Cc1c(-c2ccccc2)nc2ccc(Br)cc2c1C(=O)NC(C)C(CC(=O)O)c1ccccc1Cl (single isomer, unassigned; (+)) [Example 147, (+)-4-{[(6-Bromo-3-methyl-2-phenylquinolin-4-yl)carbonyl]amino}-3-(2-chlorophenyl)pentanoic Acid] | > 1000
Cc1c(-c2ccccc2)nc2ccc(Br)cc2c1C(=O)NC(C)C(CC(=O)O)c1ccccc1Cl (single isomer, unassigned; (+)) [Example 150, (+)-4-{[(6-Bromo-3-methyl-2-phenylquinolin-4-yl)carbonyl]amino}-3-(2-chlorophenyl)pentanoic Acid] | 960
Cc1c(-c2ccccc2)nc2ccc(Br)cc2c1C(=O)NCC(CCC(=O)O)c1c(F)cccc1Cl (single isomer, unassigned; (+)) [Example 159, (+)-5-{[(6-Bromo-3-methyl-2-phenylquinolin-4-yl)carbonyl]amino}-4-(2-chloro-6-fluorophenyl)pentanoic Acid] | 24
Cc1ccccc1C(CCC(=O)O)CNC(=O)c1c(C)c(-c2ccccc2)nc2ccc(Br)cc12 (single isomer, unassigned; (+)) [Example 162, (+)-5-{[(6-Bromo-3-methyl-2-phenylquinolin-4-yl)carbonyl]amino}-4-(2-methylphenyl)pentanoic Acid] | 33
Cc1c(-c2ccccc2)nc2ccc(Br)cc2c1C(=O)NCC(c1ccccc1Cl)N(C)CC(=O)O (single isomer, unassigned; (+)) [Example 189, (+)-N-[2-{[(6-Bromo-3-methyl-2-phenylquinolin-4-yl)carbonyl]amino}-1-(2-chlorophenyl)ethyl]-N-methylglycine] | 62
Cc1c(-c2ccccc2)nc2ccc(Br)cc2c1C(=O)NCC(OCC(=O)O)c1ccccc1Cl (single isomer, unassigned; (+)) [Example 192, (+)-[2-{[(6-Bromo-3-methyl-2-phenylquinolin-4-yl)carbonyl]amino}-1-(2-chlorophenyl)ethoxy]acetic Acid] | 42

The next compounds have a lower IC50 than those just listed; values first:

IC50 [nM] | SMILES
10 | COc1ccccc1C(C)(CNC(=O)c1c(C)c(-c2ccccc2)nc2ccc(Br)cc12)CC(=O)O (single isomer, unassigned; (+)) [Example 121, (+)-4-{[(6-Bromo-3-methyl-2-phenylquinolin-4-yl)carbonyl]amino}-3-(2-methoxyphenyl)-3-methylbutanoic Acid]
5.3 | COc1ccc(F)cc1C(CNC(=O)c1c(C)c(-c2ccccc2)nc2ccc(Br)cc12)CC(=O)O (single isomer, unassigned; (+)) [Example 124, (+)-4-{[(6-Bromo-3-methyl-2-phenylquinolin-4-yl)carbonyl]amino}-3-(5-fluoro-2-methoxyphenyl)butanoic Acid]
13 | COc1c(F)cc(F)cc1C(C)(CNC(=O)c1c(C)c(-c2ccccc2)nc2ccc(Br)cc12)CC(=O)O (single isomer, unassigned; (+)) [Example 136, (+)-4-{[(6-Bromo-3-methyl-2-phenylquinolin-4-yl)carbonyl]amino}-3-(3,5-difluoro-2-methoxyphenyl)-3-methylbutanoic Acid]
6.8 | COc1cccc(F)c1C(C)(CNC(=O)c1c(C)c(-c2ccccc2)nc2ccc(Br)cc12)CC(=O)O (single isomer, unassigned; (+)) [Example 143, (+)-4-{[(6-Bromo-3-methyl-2-phenylquinolin-4-yl)carbonyl]amino}-3-(2-fluoro-6-methoxyphenyl)-3-methylbutanoic Acid]
8 | Cc1c(-c2ccccc2)nc2ccc(Br)cc2c1C(=O)NCC(C)(CCC(=O)O)c1ccccc1Cl (single isomer, unassigned; (+)) [Example 156, (+)-5-{[(6-Bromo-3-methyl-2-phenylquinolin-4-yl)carbonyl]amino}-4-(2-chlorophenyl)-4-methylpentanoic Acid]
6.6 | Cc1c(-c2ccccc2)nc2ccc(Br)cc2c1C(=O)NCC(CCC(=O)O)c1cc(F)ccc1Cl (single isomer, unassigned; (+)) [Example 165, (+)-5-{[(6-Bromo-3-methyl-2-phenylquinolin-4-yl)carbonyl]amino}-4-(2-chloro-5-fluorophenyl)pentanoic Acid]
3.6 | COc1ccccc1C(CCC(=O)O)CNC(=O)c1c(C)c(-c2ccccc2)nc2ccc(Br)cc12 (single isomer, unassigned; (+)) [Example 168, (+)-5-{[(6-Bromo-3-methyl-2-phenylquinolin-4-yl)carbonyl]amino}-4-(2-methoxyphenyl)pentanoic Acid]
11 | Cc1c(-c2ccccc2)nc2ccc(Br)cc2c1C(=O)NCC(C)(CCC(=O)O)c1cc(F)ccc1Cl (single isomer, unassigned; (+)) [Example 171, (+)-5-{[(6-Bromo-3-methyl-2-phenylquinolin-4-yl)carbonyl]amino}-4-(2-chloro-5-fluorophenyl)-4-methylpentanoic Acid]
19 | Cc1c(-c2ccccc2)nc2ccc(Br)cc2c1C(=O)NCC(CCC(=O)O)c1ccccc1F (single isomer, unassigned; (+)) [Example 177, (+)-5-{[(6-Bromo-3-methyl-2-phenylquinolin-4-yl)carbonyl]amino}-4-(2-fluorophenyl)pentanoic Acid]
8.2 | Cc1c(-c2ccccc2)nc2ccc(Br)cc2c1C(=O)NCC(CCC(=O)O)c1ccccc1OC(F)F (single isomer, unassigned; (+)) [Example 180, (+)-5-{[(6-Bromo-3-methyl-2-phenylquinolin-4-yl)carbonyl]amino}-4-[2-(difluoromethoxy)phenyl]pentanoic Acid]
23 | Cc1c(-c2ccccc2)nc2ccc(Br)cc2c1C(=O)NCC(CCC(=O)O)c1c(F)cccc1F (single isomer, unassigned; (+)) [Example 183, (+)-5-{[(6-Bromo-3-methyl-2-phenylquinolin-4-yl)carbonyl]amino}-4-(2,6-difluorophenyl)pentanoic Acid]
17 | Cc1c(-c2ccccc2)nc2ccc(Br)cc2c1C(=O)NCC(CCC(=O)O)c1cccc(F)c1Cl (single isomer, unassigned; (+)) [Example 186, (+)-5-{[(6-Bromo-3-methyl-2-phenylquinolin-4-yl)carbonyl]amino}-4-(2-chloro-3-fluorophenyl)pentanoic Acid]
8 | Cc1c(-c2ccccc2)nc2ccc(Br)cc2c1C(=O)NCC(SCC(=O)O)c1ccccc1Cl (single isomer, unassigned; (+)) [Example 195, (+)-{[2-{[(6-Bromo-3-methyl-2-phenylquinolin-4-yl)carbonyl]amino}-1-(2-chlorophenyl)ethyl]sulfanyl}acetic Acid]

Reference: US11136296B2, “Substituted N-arylethyl-2-arylquinoline-4-carboxamides and use thereof” (Bayer Aktiengesellschaft, priority 2017, dated 2021)
